Assay results reported in patent US11733232B2, “Method for producing disease modeling non-human animal, disease modeling non-human animal, and method for screening drug and method for determining risk of disease using the same” (National University Corporation Hokkaido University, priority 2017, dated 2023).

Assays:
Format in all cases: in vivo, C57BL/6 mice
PVN and DMH neurons = assay: Anti-phosphorylated cfos immunostaining of the hypothalamus (PVN and DMH) after microinjection at the specific blood vessels; details: 2 days after
Text: Then, whether local inflammation in the brain causes a disease was investigated by directly injecting an inflammatory cytokine at the specific blood vessels. The head of a C57BL/6 mouse with induction of sleep disorder or a control mouse was fixed to a stereotactic device under anesthesia, fur above the skull was shaved, and the skin was cleaned with 70% ethanol. A 30-gauge needle was lowered toward the specific blood vessels (coordinates: AP −1.06 mm; ML 1 mm; DV 2.25 mm), and EAE-pathogenic CD4 positive T cells (1×10^6 cells)+bone marrow derived dendritic cells pulsed with MOG (5×10^5 cells), IFN-γ (50 ng; PeproTech, Inc.)+IL-17A (50 ng; R&D Systems, Inc.), or IL-6 (50 ng; Toray Industries, Inc.)+IL-17A (50 ng) in 0.2 μL each were microinjected over 90 seconds as described previously (Kim et al. (2011), Mol. Brain, 19, 4-6). […]
(§1) Furthermore, at the specific blood vessels of mice in which sleep disorder was induced, IL-6 and IL-17A, with or without a selective antagonist for P2X receptor which is an ATP receptor, A438079 (1 μg), were microinjected, in the same way as in the Example 3 (2). Phosphorylated cfos in the third ventricular region, bloody stool scores, and mortality were evaluated 2 days after the microinjection, and the results are shown in FIG. 34 and FIG. 35. […]

[1] = tested on: mice in which sleep disorder was induced followed by transfer of EAE-pathogenic CD4 positive T cells; assay: Pathological conditions (EAE clinical score, mortality, fecal occult blood) of disease modeling mice
Description: Loading PAWW stress and induction of sleep disorder thereby were performed as described previously (Miyazaki, K. et al., PloS one, 2013, 8, e55452). 6-8 weeks old C57BL/6 mice were individually maintained in plastic cages with running wheels for habituation. Then, through loading PAWW stress by replacing wood beddings in the cages with water having depth of 1.5 cm to make the mice exercise continuously on the wheel for 2 days, sleep disorder was induced in the mice.
Preparation and transfer of EAE-pathogenic CD4 positive T cells were performed as described previously (Arima, Y. et al., Cell., 2012, 148, 447-457; Arima, Y. et al., eLife, 2015, 4, e08733; Ogura, H. et al., Immunity, 2008, 29, 628-636). Briefly, C57BL/6 mice were injected subcutaneously with a MOG (35-55) peptide (Sigma-Aldrich Co. LLC.) together with complete Freund's adjuvant (Sigma-Aldrich Co. LLC.) at the base of the tail, then 0, 2, and 7 days after MOG peptide injection, the mice were further injected intravenously with pertussis toxin (Sigma-Aldrich Co. LLC.). 9 days after MOG peptide injection, lymphocytes were collected from the spleens of the mice, sorted with anti-CD4 microbeads (Miltenyi Biotec, Inc.) to obtain a cell population rich in CD4 positive T cells. The resulting cell population (4×10^6 cells) was co-cultured with MOG peptide-pulsed irradiated spleen cells (1×10^7 cells) for 2 days in the presence of rIL-23 (10 ng/mL; R & D Systems, Inc.). Cells were collected from the culture medium, enriched with the anti-CD4 microbeads, and EAE-pathogenic CD4 positive T cells were prepared.
2 days after starting stress load described in (i) above, the EAE-pathogenic CD4 positive T cells (1.5×10^7 cells) prepared in (ii) above were transferred to the mice by intravenous injection to produce disease modeling mice. Also, mice into which EAE-pathogenic CD4 positive T cells were transferred without stress load, mice into which EAE-pathogenic CD4 positive T cells were not transferred after stress load, mice without stress load and without EAE-pathogenic CD4 positive T cells transfer, were prepared.
Pathological conditions of EAE in the mice prepared in Example 1 were evaluated with clinical score. Clinical score was determined as described previously (Arima, Y. et al., Cell, 2012, 148, 447-457; Arima, Y. et al., eLife, 2015, 4, e08733; Ogura, H. et al., Immunity, 2008, 29, 628-636). Clinical scores represent the severity of encephalomyelitis symptoms, and the scores increase with increasing the severity. A score of 0 is equivalent to normal state without abnormal findings, and a score of 5 is equivalent to death.
(§2) Pathological conditions of gastroenteritis in the mice prepared in Example 1 (1) were evaluated on 10 days after the transfer of EAE-pathogenic CD4 positive T cells. Stools collected from each mouse were suspended in saline (20 mL/g stool), the supernatants obtained by centrifugation (8000 rpm, 5 minutes) were diluted to 10 times with saline, and fecal occult blood test was performed with Hemastix (Registered) (Siemens Healthcare Pty, Ltd.). Bloody stool scores were calculated according to the scoring method described on the package of Hemastix.

[2] = tested on: C57BL/6 mouse with induction of sleep disorder; assay: Microinjection at the specific blood vessels of mice with induced sleep disorder: mortality and bloody stool scores; details: 1 μg microinjected together with IL-6 and IL-17A at the specific blood vessels, 2 days after
Description: as §2
Then, whether local inflammation in the brain causes a disease was investigated by directly injecting an inflammatory cytokine at the specific blood vessels. The head of a C57BL/6 mouse with induction of sleep disorder or a control mouse was fixed to a stereotactic device under anesthesia, fur above the skull was shaved, and the skin was cleaned with 70% ethanol. […]
as §1

[3] = tested on: specific blood vessels in the boundary area of the third ventricle, thalamus, and dentate gyrus; assay: Cell accumulation at the specific blood vessels of disease modeling mice (immunohistochemistry, flow cytometry); details: 0.2 μL of 2 mg/ml microinjected at the specific blood vessels 4 days before T cell transfer; FIG. 22
Text: Accumulation of MHC class II positive cells and CD4 positive T cells in the mice prepared in Example 1 (1) was investigated. The fifth lumbar vertebra and the brain were removed from the mice 10 days after transferring EAE-pathogenic CD4 positive T cells, embedded in SCEM (SECTION-LAB Co., Ltd.), and sliced to sections with a thickness of 10 μm using a microtome device, CM3050 (Leica Microsystems GmbH). Sections were collected using Cryofilm type IIIC (16UF) (SECTION-LAB Co., Ltd.), subjected to hematoxylin eosin staining, or to immunohistochemical staining with an anti-MHC class II antibody or anti-CD4 antibody, and analyzed by BZ-9000 microscope (KEYENCE Corporation) using HS ALL software in BZ-II analyzer (KEYENCE Corporation).
Furthermore, brains were removed from the mice 9 days after transferring EAE-pathogenic CD4 positive T cells, dissected into each parts of the cerebellum and brain stem, cortex, and hippocampus and interbrain, and enzymatically digested with Neural Tissue Dissection kit (Miltenyi Biotec Company) to prepare single cell suspension. […] Then, the cells were analyzed using CyAn flow cytometer (Beckman Coulter Corporation), and the obtained data were analyzed using Summit software (Beckman Coulter Corporation) or FlowJo software (Tree Star, Inc.). […]

[4] = tested on: dopamine/noradrenergic neurons; assay: Immunostaining of third ventricular regions of chemically sympathectomized mice (tyrosine hydroxylase, phosphorylated CREB); details: 0.2 μL of 2 mg/ml microinjected at the specific blood vessels 4 days before T cell transfer, 10 days after transfer, FIG. 21
Description: 0.2 μL each of 6-hydroxydopamine (6-OHDA) hydrochloride (2 mg/ml), which is a neurotoxin denaturalizing dopamine/noradrenergic neurons, or a vehicle 0.02% ascorbic acid was microinjected at the specific blood vessels of C57BL/6 mice 4 days before transferring EAE-pathogenic CD4 positive T cells (2 days before stress load), in the same way as in the Example 3 (2). Subsequently, induction of sleep disorder and transfer of EAE-pathogenic CD4 positive T cells were performed in the same way as in the Example 1 (1).
Photographs of the immunostained third ventricular regions of chemically sympathectomized mice 10 days after transferring EAE-pathogenic CD4 positive T cells are shown in FIG. 21. The immunostaining was performed with an anti-tyrosine hydroxylase antibody or anti-phosphorylated CREB antibody. 6-OHDA reduced tyrosine hydroxylase-positive sympathetic neurons, and suppressed phosphorylation of CREB induced by noradrenergic receptor-mediated signal transduction.

## Nc1ncnc2c1ncn2[C@@H]1O[C@H](COP(=O)(O)OP(=O)(O)OP(=O)(O)O)[C@@H](O)[C@H]1O [ATP]
PVN and DMH neurons; microinjected at the specific blood vessels of mice with sleep disorder (IFN-γ+IL-17A 50 ng each; ATP 2 μg), FIG. 30
  phosphorylated cfos, that is, neural activation, in the PVN and DMH: activated

## NCc1cc(=O)[nH]o1 [Muscimol, muscimol]
[1]; 0.25 mg/mL microinjected into the DMH 5 days after T cell transfer, 10 days after transfer, FIG. 29B
  mortality: remarkably improved
[1]; 0.25 mg/mL microinjected into the DMH 5 days after T cell transfer, 10 days after transfer, FIG. 29C
  bloody stool scores: remarkably improved
[1]; 0.25 mg/mL microinjected into the DMH 5 days after T cell transfer, vehicle saline, FIG. 29A
  clinical scores: remarkably improved

## Clc1cccc(-c2nnnn2Cc2cccnc2)c1Cl [A438079]
[2]; FIG. 35A
  mortality: improved
[2]; FIG. 35B
  gastroenteritis (bloody stool scores): improved
PVN and DMH neurons; 1 μg microinjected together with IL-6 and IL-17A at the specific blood vessels of mice with sleep disorder, FIG. 34
  neural activation in the PVN and DMH (phosphorylated cfos): suppressed

## Cl.NCCc1cc(O)c(O)cc1O [6-OHDA, 6-hydroxydopamine hydrochloride]
[1]; 0.2 μL of 2 mg/ml microinjected at the specific blood vessels 4 days before T cell transfer, 10 days after transfer, FIG. 23B
  mortality: improved
[1]; 0.2 μL of 2 mg/ml microinjected at the specific blood vessels 4 days before T cell transfer, FIG. 23A
  clinical scores: improved
[3]
  accumulation of CD4 positive T cells at the specific blood vessels: suppressed
  accumulation of CD11b positive MHC class II-highly expressing cells at the specific blood vessels: suppressed
[4]
  phosphorylation of CREB: suppressed
[4]; vehicle 0.02% ascorbic acid
  tyrosine hydroxylase-positive sympathetic neurons: reduced

## Cc1c(OCC(F)(F)F)ccnc1C[S+]([O-])c1nc2ccccc2[nH]1 (stereo not shown) [lansoprazole]
[1]; 30 mg/kg body weight orally daily after transfer, control CMC, FIG. 6B
  mortality 10 days after the transfer: remarkably reduced
[1]; 30 mg/kg body weight orally daily after transfer, control CMC, FIG. 6C
  bloody stool scores: remarkably reduced
[1]; 30 mg/kg body weight orally daily after transferring EAE-pathogenic CD4 positive T cells, control carboxymethyl cellulose, FIG. 6A
  clinical scores: remarkably reduced
